We go through eight compounds from patent US11034650B2, “Compounds useful for treating a Mannheimia haemolytica or Histophilus somni infection” (Intervet Inc., priority 2016, dated 2021).

Holding throughout (assay type): cell-based
Test [1] has as its system Mannheimia haemolytica MH 6357 (M7/2, reference strain, cattle infection strain). Put plainly: MIC, broth-microdilution (CLSI VET01-A4), strain MH 6357. The following applies: Mannheimia haemolytica strain MH 6357, broth-microdilution; unit assumed. In outline: (§1)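 Growth inhibition is scored visually on a doubling dilution series. The reported MIC corresponds to the lowest concentration free of turbidity, with results assessed under CLSI VET01-S3.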

Test [2] concerns Mannheimia haemolytica MH 6374 (ATCC 33396, reference strain). Briefly: MIC, broth-microdilution (CLSI VET01-A4), strain MH 6374. The following applies: Mannheimia haemolytica strain MH 6374, broth-microdilution; unit assumed. The essentials:
as §1
A general note: Dilution methods test growth across graded concentrations, often in twofold steps.

For test [3], the system named is Mannheimia haemolytica MH 10720 (154, BRD field isolate). Briefly: MIC, broth-microdilution (CLSI VET01-A4), strain MH 10720. The following applies: Mannheimia haemolytica strain MH 10720, broth-microdilution; unit assumed. In outline: as §1
In test [4] the test system is Mannheimia haemolytica MH 12587 (1071, BRD field isolate, macrolide-resistance: erm+, E+). Put plainly: MIC, broth-microdilution (CLSI VET01-A4), strain MH 12587. Conditions: Mannheimia haemolytica strain MH 12587, broth-microdilution; unit assumed. In outline: as §1
The test system of test [5] is Mannheimia haemolytica MH 13065 (XB0446-6003.9, BRD field isolate). Briefly: MIC, broth-microdilution (CLSI VET01-A4), strain MH 13065. Conditions: Mannheimia haemolytica strain MH 13065, broth-microdilution; unit assumed. In outline:
as §1

Test [6] relates to Mannheimia haemolytica MH 13093 (XB0472-6014.1, BRD field isolate). Briefly: MIC, broth-microdilution (CLSI VET01-A4), strain MH 13093. The following applies: Mannheimia haemolytica strain MH 13093, broth-microdilution; unit assumed. The essentials:
as §1

Test [7] has as its system Pasteurella multocida PM 6267 (P 2225 (L386), reference strain, mouse infection strain). Put plainly: MIC, broth-microdilution (CLSI VET01-A4), strain PM 6267. Conditions: Pasteurella multocida strain PM 6267, broth-microdilution; unit assumed. The essentials:
as §1

Test [8] concerns Pasteurella multocida PM 6391 (ATCC 43137, reference strain). Put plainly: MIC, broth-microdilution (CLSI VET01-A4), strain PM 6391. Conditions: Pasteurella multocida strain PM 6391, broth-microdilution; unit assumed. The procedure:
For example, representative compounds were tested against ***, Mannheimia haemolytica and Pasteurella multocida, using the conventional broth-dilution assay.
The Minimum inhibitory concentrations (MIC) of compounds according to the invention for a number of veterinary bacterial pathogens were determined by the broth-microdilution method according to CLSI document VET01-A4.
Microdilution trays containing a doubling dilution series of the test compound were used for the tests. The MIC results were interpreted according to the CLSI documents VET01-S3. The lowest concentration of compound at which no visible growth (i.e. no turbidity) detected by the unaided eye was recorded as the MIC.

Test [9] has as its system Pasteurella multocida PM 10775 (080130003051, BRD field isolate). Briefly: MIC, broth-microdilution (CLSI VET01-A4), strain PM 10775. The following applies: Pasteurella multocida strain PM 10775, broth-microdilution; unit assumed. The essentials: as §1
The subject of test [10] is Pasteurella multocida PM 12080 (IV102277-0093, BRD field isolate). Briefly: MIC, broth-microdilution (CLSI VET01-A4), strain PM 12080. The following applies: Pasteurella multocida strain PM 12080, broth-microdilution; unit assumed. The essentials:
as §1

≈ marks a conversion by molar mass, not a printed value.

Regarding `O=C(N[C@@H](CO)C(=O)NO)c1ccc(C#Cc2ccc(CNCc3ccco3)cc2)cc1` [Compound 159], the MIC MH 6357 in test [1] is 1.6 µg/mL (≈ 3.69 µM). In test [2], this compound had an MIC MH 6374 of 1.6 µg/mL (≈ 3.69 µM). Moreover, the MIC MH 10720 in [3] amounted to 0.4 µg/mL (≈ 0.923 µM). In [4], this compound returned an MIC MH 12587 of 3.1 µg/mL (≈ 7.15 µM). The MIC MH 13065 in [5] is 3.1 µg/mL (≈ 7.15 µM). In [6], this compound came in with an MIC MH 13093 of 3.1 µg/mL (≈ 7.15 µM). In test [7], this compound displayed an MIC PM 6267 of 0.2 µg/mL (≈ 0.461 µM). The compound further came in with an MIC PM 6391 in test [8] of 0.8 µg/mL (≈ 1.85 µM). Moreover, in test [9], the MIC PM 10775 was at most 0.1 µg/mL. In [10], the MIC PM 12080 was determined as 0.4 µg/mL (≈ 0.923 µM).
Take `O=C(N[C@@H](CO)C(=O)NO)c1ccc(C#Cc2ccc(CNCc3cccs3)cc2)cc1` [Compound 160]: in test [1], the MIC MH 6357 worked out at 0.8 µg/mL (≈ 1.78 µM). In test [2], the MIC MH 6374 turned out to be 0.8 µg/mL (≈ 1.78 µM). Further, the MIC MH 10720 in [3] was 0.4 µg/mL (≈ 0.89 µM). The compound further yielded an MIC MH 12587 in test [4] of 3.1 µg/mL (≈ 6.9 µM). In test [5], the MIC MH 13065 amounted to 1.6 µg/mL (≈ 3.56 µM). In addition, the MIC MH 13093 in test [6] came out at 3.1 µg/mL (≈ 6.9 µM). In [7], this compound registered an MIC PM 6267 of at most 0.1 µg/mL. The compound further yielded an MIC PM 6391 in test [8] of 0.4 µg/mL (≈ 0.89 µM). For the same compound, in test [9], the MIC PM 10775 is at most 0.1 µg/mL. In test [10], this compound yielded an MIC PM 12080 of 0.2 µg/mL (≈ 0.445 µM).
For `Cc1ccc(CNCc2ccc(C#Cc3ccc(C(=O)N[C@@H](CO)C(=O)NO)cc3)cc2)cc1` [Compound 161], in test [1], the MIC MH 6357 worked out at 1.6 µg/mL (≈ 3.5 µM). The MIC MH 6374 in test [2] is 1.6 µg/mL (≈ 3.5 µM). This compound had an MIC MH 10720 in [3] of 0.8 µg/mL (≈ 1.75 µM). The MIC MH 12587 in test [4] was found to be 6.3 µg/mL (≈ 13.8 µM). In test [5], the MIC MH 13065 was found to be 3.1 µg/mL (≈ 6.78 µM). For the same compound, the MIC MH 13093 in test [6] came out at 6.3 µg/mL (≈ 13.8 µM). Moreover, the MIC PM 6267 in test [7] was determined as 0.2 µg/mL (≈ 0.437 µM). This compound showed an MIC PM 6391 in test [8] of 0.8 µg/mL (≈ 1.75 µM). In test [9], this compound came in with an MIC PM 10775 of at most 0.1 µg/mL. The same compound gave an MIC PM 12080 in test [10] of 0.2 µg/mL (≈ 0.437 µM).
The compound `O=C(N[C@@H](CO)C(=O)NO)c1ccc(C#Cc2ccc(CNCC3CCCO3)cc2)cc1` (some centres unmarked) [Compound 162] returned an MIC MH 6357 in test [1] of 6.3 µg/mL (≈ 14.4 µM). Besides, in test [2], the MIC MH 6374 amounted to 12.5 µg/mL (≈ 28.6 µM). Further, in [3], the MIC MH 10720 worked out at 3.1 µg/mL (≈ 7.09 µM). In [4], this compound showed an MIC MH 12587 of 12.5 µg/mL (≈ 28.6 µM). In test [5], the MIC MH 13065 stood at 12.5 µg/mL (≈ 28.6 µM). Besides, the MIC MH 13093 in [6] came out at 12.5 µg/mL (≈ 28.6 µM). The MIC PM 6267 in test [7] amounted to 0.8 µg/mL (≈ 1.83 µM). This compound also yielded an MIC PM 6391 in test [8] of 3.1 µg/mL (≈ 7.09 µM). Further, in [9], the MIC PM 10775 is at most 0.1 µg/mL. This compound also gave an MIC PM 12080 in test [10] of 1.6 µg/mL (≈ 3.66 µM).
In [1], `COCC(C)NCc1ccc(C#Cc2ccc(C(=O)N[C@@H](CO)C(=O)NO)cc2)cc1` (some centres unmarked) [Compound 164] displayed an MIC MH 6357 of 6.3 µg/mL (≈ 14.8 µM). The compound further registered an MIC MH 6374 in test [2] of 12.5 µg/mL (≈ 29.4 µM). In test [3], this compound returned an MIC MH 10720 of 1.6 µg/mL (≈ 3.76 µM). In addition, the MIC MH 12587 in test [4] was 25 µg/mL (≈ 58.8 µM). Further, the MIC MH 13065 in test [5] was 12.5 µg/mL (≈ 29.4 µM). The same compound gave an MIC MH 13093 in test [6] of 25 µg/mL (≈ 58.8 µM). For the same compound, in test [7], the MIC PM 6267 came out at 0.4 µg/mL (≈ 0.94 µM). Also, in test [8], the MIC PM 6391 was 1.6 µg/mL (≈ 3.76 µM). In test [9], this compound displayed an MIC PM 10775 of at most 0.1 µg/mL. This compound registered an MIC PM 12080 in test [10] of 1.6 µg/mL (≈ 3.76 µM).
In the case of `CC1CN(Cc2ccc(C#Cc3ccc(C(=O)N[C@H](C(=O)NO)C(C)C)cc3)cc2)CC(C)O1` (some centres unmarked) [Compound 165], the MIC MH 6357 in test [1] is 6.3 µg/mL (≈ 13.6 µM). The MIC MH 6374 in [2] stood at 12.5 µg/mL (≈ 27 µM). Also, the MIC MH 10720 in test [3] is 3.1 µg/mL (≈ 6.69 µM). The compound further had an MIC MH 12587 in [4] of 25 µg/mL (≈ 53.9 µM). This compound also came in with an MIC MH 13065 in test [5] of 12.5 µg/mL (≈ 27 µM). The MIC MH 13093 in test [6] was 12.5 µg/mL (≈ 27 µM). The compound also yielded an MIC PM 6267 in test [7] of at most 0.1 µg/mL. Besides, the MIC PM 6391 in test [8] came out at 0.2 µg/mL (≈ 0.431 µM). This compound yielded an MIC PM 10775 in test [9] of at most 0.1 µg/mL. The compound also yielded an MIC PM 12080 in test [10] of at most 0.1 µg/mL.
Take `CC(C)[C@H](NC(=O)c1ccc(C#Cc2ccc(CN3CCCCC3)cc2)cc1)C(=O)NO` [Compound 166]: the MIC MH 6357 in [1] came to 3.1 µg/mL (≈ 7.15 µM). In test [2], the MIC MH 6374 was found to be 6.3 µg/mL (≈ 14.5 µM). In test [3], this compound had an MIC MH 10720 of 0.8 µg/mL (≈ 1.85 µM). Further, in test [4], the MIC MH 12587 is 6.3 µg/mL (≈ 14.5 µM). Moreover, the MIC MH 13065 in test [5] stood at 6.3 µg/mL (≈ 14.5 µM). Further, in [6], the MIC MH 13093 is 6.3 µg/mL (≈ 14.5 µM). Moreover, in [7], the MIC PM 6267 worked out at 0.2 µg/mL (≈ 0.461 µM). The compound further yielded an MIC PM 6391 in test [8] of 0.8 µg/mL (≈ 1.85 µM). This compound came in with an MIC PM 10775 in test [9] of at most 0.1 µg/mL. In [10], this compound gave an MIC PM 12080 of 0.4 µg/mL (≈ 0.923 µM).
Compound `CC(C)[C@H](NC(=O)c1ccc(C#Cc2ccc(CNCc3cccnc3)cc2)cc1)C(=O)NO` [Compound 167] came in with an MIC MH 6357 in [1] of 0.4 µg/mL (≈ 0.876 µM). In addition, the MIC MH 6374 in test [2] came out at 0.4 µg/mL (≈ 0.876 µM). This compound also registered an MIC MH 10720 in test [3] of at most 0.1 µg/mL. The same compound gave an MIC MH 12587 in test [4] of 0.8 µg/mL (≈ 1.75 µM). In test [5], this compound came in with an MIC MH 13065 of 0.8 µg/mL (≈ 1.75 µM). In addition, in test [6], the MIC MH 13093 was 0.8 µg/mL (≈ 1.75 µM). In [7], this compound registered an MIC PM 6267 of at most 0.1 µg/mL. The same compound returned an MIC PM 6391 in test [8] of 0.4 µg/mL (≈ 0.876 µM). The compound further showed an MIC PM 10775 in test [9] of at most 0.1 µg/mL. The compound further came in with an MIC PM 12080 in test [10] of 0.2 µg/mL (≈ 0.438 µM).
